Laboratory results reported in patent publication US11279681B2, “3-alkyl bicyclic [4,5,0] hydroxamic acids as HDAC inhibitors” (Valo Health, Inc., priority 2015, dated 2022).

target: T1, HDAC6 (Homo sapiens, UniProt Q9UBN7); assay: In vitro histone deacetylase assay: enzymatic HDAC6 electrophoretic mobility shift assay; type: biochemical; details: full length human recombinant HDAC6, 1 nM enzyme, 2 μM peptide substrate RHKK(Ac)-NH2, 25° C.; read-out: Inhibitory Concentration (IC50) Values for Representative Compounds against HDAC6, Activity Range
T1 sequence (Q9UBN7 1-1215): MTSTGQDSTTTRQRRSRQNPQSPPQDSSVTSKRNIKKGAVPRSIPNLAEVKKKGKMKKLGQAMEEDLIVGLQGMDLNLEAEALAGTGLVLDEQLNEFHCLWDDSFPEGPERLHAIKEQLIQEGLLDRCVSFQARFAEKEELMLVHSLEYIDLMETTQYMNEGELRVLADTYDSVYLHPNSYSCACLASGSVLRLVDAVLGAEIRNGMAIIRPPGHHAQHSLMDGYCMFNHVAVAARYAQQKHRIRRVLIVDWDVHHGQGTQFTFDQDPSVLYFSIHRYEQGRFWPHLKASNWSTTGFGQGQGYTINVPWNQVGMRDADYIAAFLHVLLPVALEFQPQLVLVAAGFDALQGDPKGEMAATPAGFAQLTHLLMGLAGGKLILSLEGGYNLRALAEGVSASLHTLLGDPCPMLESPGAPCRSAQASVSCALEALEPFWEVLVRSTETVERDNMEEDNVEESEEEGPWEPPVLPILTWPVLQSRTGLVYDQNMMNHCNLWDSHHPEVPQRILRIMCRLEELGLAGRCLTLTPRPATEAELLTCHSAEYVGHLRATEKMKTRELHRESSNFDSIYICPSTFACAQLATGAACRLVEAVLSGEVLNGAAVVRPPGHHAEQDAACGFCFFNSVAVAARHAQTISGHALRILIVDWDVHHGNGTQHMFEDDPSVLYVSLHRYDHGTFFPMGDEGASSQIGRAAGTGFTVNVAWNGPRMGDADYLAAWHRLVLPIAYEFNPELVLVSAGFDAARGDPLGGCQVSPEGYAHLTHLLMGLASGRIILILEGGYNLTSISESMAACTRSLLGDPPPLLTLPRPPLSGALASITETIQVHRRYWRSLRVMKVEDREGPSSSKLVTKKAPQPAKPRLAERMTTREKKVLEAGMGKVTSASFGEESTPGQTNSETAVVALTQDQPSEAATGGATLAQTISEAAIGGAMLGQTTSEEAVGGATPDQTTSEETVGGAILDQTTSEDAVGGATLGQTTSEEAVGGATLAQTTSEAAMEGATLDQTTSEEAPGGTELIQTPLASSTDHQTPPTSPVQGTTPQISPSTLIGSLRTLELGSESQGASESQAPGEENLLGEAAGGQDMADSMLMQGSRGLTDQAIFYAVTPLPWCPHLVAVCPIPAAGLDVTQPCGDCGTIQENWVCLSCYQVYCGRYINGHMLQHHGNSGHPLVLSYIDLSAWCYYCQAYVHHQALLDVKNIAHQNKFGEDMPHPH

Row | SMILES | IC50 [nM]
1 | COCCn1c(N2CCOc3ccc(C(=O)NO)cc3C2)nc2ccccc21 | 100 to 500
2 | COC[C@@H]1COc2cc(C(=O)NO)ccc2CN1Cc1ccc(OC)cc1 [(R)-N-hydroxy-4-(4-methoxybenzyl)-3-(methoxymethyl)-2,3,4,5-tetrahydrobenzo[f][1,4]oxazepine-8-carboxamide] | ≤ 100
3 | COc1ccc(CCN2CCOc3cc(C(=O)NO)ccc3C2)cc1 | 100 to 500
4 | O=C1CN(Cc2ccc(-c3nccs3)cc2)Cc2cc(C(=O)NO)ccc2N1 | ≤ 100
5 | O=C(NO)c1ccc2c(c1)OCCN(CC1CCCCC1)C2 | 100 to 500
6 | COc1ccc(CN2CCOc3ccc(C(=O)NO)cc3C2=O)cc1 | > 500
7 | O=C1CN(Cc2cn3ccccc3n2)Cc2cc(C(=O)NO)ccc2N1 | ≤ 100
8 | O=C(NO)c1ccc2c(c1)OCCN(S(=O)(=O)N1CCCCC1)C2 | ≤ 100
9 | COc1ccc(CN2CCOc3ccc(C(=O)NO)cc3C2)cn1 | > 500
10 | O=C(NO)c1ccc2c(c1)OCCN(c1ccccc1)C2 [N-hydroxy-4-phenyl-2,3,4,5-tetrahydrobenzo[f][1,4]oxazepine-8-carboxamide] | > 500
11 | O=C(NO)c1ccc2c(c1)OCCN(C1CCCCC1)C2 [4-cyclohexyl-N-hydroxy-2,3,4,5-tetrahydrobenzo[f][1,4]oxazepine-8-carboxamide] | > 500
12 | Cn1ccnc1CN1CC(=O)Nc2ccc(C(=O)NO)cc2C1 | 100 to 500
13 | O=C1CN(Cc2cncnc2)Cc2cc(C(=O)NO)ccc2N1 | > 500
14 | COc1ccc(CN2CC(=O)N(C)c3ccc(C(=O)NO)cc3C2)cc1 | > 500
15 | CC(=O)N1CCCC(CN2CC(=O)Nc3ccc(C(=O)NO)cc3C2)C1 (centres unmarked) | > 500
16 | COc1ccc(CN2CC(=O)Nc3ccc(C(=O)NO)cc3C2)cc1 | 100 to 500
17 | O=C1CN(c2ccccc2)Cc2cc(C(=O)NO)ccc2N1 [N-hydroxy-2-oxo-4-phenyl-2,3,4,5-tetrahydro-1H-benzo[e][1,4]diazepine-7-carboxamide] | > 500
18 | C[C@H]1CN(c2ccccc2)Cc2ccc(C(=O)NO)cc2O1 | > 500
19 | COc1ccc(CCN2CCOc3cc(C(=O)NO)ccc3C2=O)cc1 | 100 to 500
20 | COc1ccc(CN2CCOc3cc(C(=O)NO)ccc3C2)cn1 | 100 to 500
21 | COc1ccc(CN2CCOc3cc(C(=O)NO)cnc3C2)cc1 | 100 to 500
22 | CC(C)(C)Oc1ccc(CN2CC(=O)Nc3ccc(C(=O)NO)cc3C2)cc1 | 100 to 500
23 | O=C1CN(CC2CCOC2)Cc2cc(C(=O)NO)ccc2N1 (centres unmarked) | > 500
24 | COc1ccc(NC(=O)N2CCOc3cc(C(=O)NO)ccc3C2)cc1 | 100 to 500
25 | COc1ccc(CCN2CC(=O)Nc3ccc(C(=O)NO)cc3C2)cc1 | 100 to 500
26 | O=C(NO)c1ccc2c(c1)OCCN(C(=O)N1CCOCC1)C2 [N-hydroxy-4-(morpholine-4-carbonyl)-2,3,4,5-tetrahydrobenzo[f][1,4]oxazepine-8-carboxamide] | 100 to 500
27 | COC[C@H]1COc2cc(C(=O)NO)ccc2CN1c1ccccc1C [(S)-N-hydroxy-3-(methoxymethyl)-4-(o-tolyl)-2,3,4,5-tetrahydrobenzo[f][1,4]oxazepine-8-carboxamide] | ≤ 100
28 | O=C1CN(Cc2cccc3c2OC(F)(F)O3)Cc2cc(C(=O)NO)ccc2N1 | ≤ 100
29 | N#Cc1ccc(N2CCOc3cc(C(=O)NO)ccc3C2)cc1C(F)(F)F | 100 to 500

The next lines start with the values.

Row | IC50 [nM] | SMILES
30 | 100 to 500 | CN1CCOc2cc(C(=O)NO)ccc2C1 [N-hydroxy-4-methyl-2,3,4,5-tetrahydrobenzo[f][1,4]oxazepine-8-carboxamide]
31 | 100 to 500 | C[C@H]1COc2cc(C(=O)NO)ccc2CN1c1ccc(OC(F)(F)F)cc1 [(S)-N-hydroxy-3-methyl-4-(4-(trifluoromethoxy)phenyl)-2,3,4,5-tetrahydrobenzo[f][1,4]oxazepine-8-carboxamide]
32 | ≤ 100 | C[C@H]1COc2cc(C(=O)NO)ccc2CN1C(=O)N1C[C@@H]2CC[C@@H](C1)O2 [(S)-4-((1S,5S)-8-oxa-3-azabicyclo[3.2.1]octane-3-carbonyl)-N-hydroxy-3-methyl-2,3,4,5-tetrahydrobenzo[f][1,4]oxazepine-8-carboxamide]
33 | 100 to 500 | C[C@H]1COc2cc(C(=O)NO)ccc2CN1c1ccncc1 [(S)-N-hydroxy-3-methyl-4-(pyridin-4-yl)-2,3,4,5-tetrahydrobenzo[f][1,4]oxazepine-8-carboxamide]
34 | 100 to 500 | C[C@H]1COc2cc(C(=O)NO)ccc2CN1c1ccc(C(F)(F)F)cc1 [(S)-N-hydroxy-3-methyl-4-(4-(trifluoromethyl)phenyl)-2,3,4,5-tetrahydrobenzo[f][1,4]oxazepine-8-carboxamide]
35 | ≤ 100 | COc1ccc(CN2Cc3ccc(C(=O)NO)cc3OC[C@@H]2C)cc1
36 | ≤ 100 | C[C@H]1COc2cc(C(=O)NO)ccc2CN1C(=O)N1CCOc2ccccc21 [(S)-4-(3,4-dihydro-2H-benzo[b][1,4]oxazine-4-carbonyl)-N-hydroxy-3-methyl-2,3,4,5-tetrahydrobenzo[f][1,4]oxazepine-8-carboxamide]
37 | 100 to 500 | C[C@H]1COc2cc(C(=O)NO)ccc2CN1S(=O)(=O)c1ccc(F)cc1 [(S)-4-((4-fluorophenyl)sulfonyl)-N-hydroxy-3-methyl-2,3,4,5-tetrahydrobenzo[f][1,4]oxazepine-8-carboxamide]
38 | ≤ 100 | C[C@H]1COc2cc(C(=O)NO)ccc2CN1C(=O)N(C)C [(S)-N8-hydroxy-N4,N4,3-trimethyl-2,3-dihydrobenzo[f][1,4]oxazepine-4,8(5H)-dicarboxamide]
39 | ≤ 100 | C[C@H]1COc2cc(C(=O)NO)ccc2CN1C(=O)OC1CCCCC1 [cyclohexyl(S)-8-(hydroxycarbamoyl)-3-methyl-2,3-dihydrobenzo[f][1,4]oxazepine-4(5H)-carboxylate]
40 | ≤ 100 | C[C@H]1COc2cc(C(=O)NO)ccc2CN1Cc1ccc(F)cc1 [(S)-4-(4-fluorobenzyl)-N-hydroxy-3-methyl-2,3,4,5-tetrahydrobenzo[f][1,4]oxazepine-8-carboxamide]
41 | > 500 | CN(C)CCN1CCOc2cc(C(=O)NO)ccc2C1
42 | 100 to 500 | COc1ccc(NC(=O)N2Cc3ccc(C(=O)NO)cc3OC[C@H]2C(C)C)cc1
43 | 100 to 500 | C[C@H]1CNCc2ccc(C(=O)NO)cc2O1 [(S)—N-hydroxy-2-methyl-2,3,4,5-tetrahydrobenzo[f][1,4]oxazepine-8-carboxamide]
44 | 100 to 500 | C[C@H]1COc2cc(C(=O)NO)ccc2CN1C(=O)N(C)c1ccccc1 [(S)-N8-hydroxy-N4,3-dimethyl-N4-phenyl-2,3-dihydrobenzo[f][1,4]oxazepine-4,8(5H)-dicarboxamide]
45 | > 500 | CN(C(=O)N1CCOc2cc(C(=O)NO)ccc2C1)c1ccccc1
46 | ≤ 100 | C[C@H]1COc2cc(C(=O)NO)ccc2CN1C(=O)Nc1cccnc1 [(S)-N8-hydroxy-3-methyl-N4-(pyridin-3-yl)-2,3-dihydrobenzo[f][1,4]oxazepine-4,8(5H)-dicarboxamide]
47 | ≤ 100 | CN1Cc2ccc(C(=O)NO)cc2OCC1(C)C [N-hydroxy-3,3,4-trimethyl-2,3,4,5-tetrahydrobenzo[f][1,4]oxazepine-8-carboxamide]
48 | 100 to 500 | CC(c1ccc(F)cc1)N1Cc2ccc(C(=O)NO)cc2OC[C@@H]1C (stereo partly drawn) [(3S)-4-(1-(4-fluorophenyl)ethyl)-N-hydroxy-3-methyl-2,3,4,5-tetrahydrobenzo[f][1,4]oxazepine-8-carboxamide]
49 | ≤ 100 | CC(C)[C@@H]1COc2cc(C(=O)NO)ccc2CN1
50 | ≤ 100 | C[C@H]1COc2cc(C(=O)NO)ccc2CN1C(=O)Nc1ccccc1 [(S)-N8-hydroxy-3-methyl-N4-phenyl-2,3-dihydrobenzo[f][1,4]oxazepine-4,8(5H)-dicarboxamide]
51 | > 500 | C[C@@H]1CNCc2ccc(C(=O)NO)cc2O1 [(R)—N-hydroxy-2-methyl-2,3,4,5-tetrahydrobenzo[f][1,4]oxazepine-8-carboxamide]
52 | > 500 | C[C@@H]1CN(C)Cc2ccc(C(=O)NO)cc2O1 [(R)—N-hydroxy-2,4-dimethyl-2,3,4,5-tetrahydrobenzo[f][1,4]oxazepine-8-carboxamide]
53 | ≤ 100 | C[C@H]1COc2cc(C(=O)NO)ccc2CN1c1ccccc1F [(S)-4-(2-fluorophenyl)-N-hydroxy-3-methyl-2,3,4,5-tetrahydrobenzo[f][1,4]oxazepine-8-carboxamide]
